Assay results: patent US20230270731A1, “THERAPEUTIC COMPOUNDS AND COMPOSITIONS” (eXIthera Pharmaceuticals, Inc., priority 2019, published 2023)
In brackets after ≈: the same amount, converted by molar mass. Where two headings read alike, the source gives them in different places.

Key:
Format in all cases: physicochemical
[1] = Equilibrium solubility of Compound 1 in common buffers; settings: thermodynamic from solid, read-out: Avg. c(Compound 1, FB), equilibrium solubility
Method: The equilibrium solubility of Compound 1 was tested in common buffers (Table 2) at a buffer strength of c(buffer)=200 mM. For this, samples of Compound 1 with c(Compound 1, target)=16 mg/mL were prepared in the different buffer solutions (Table 3), mixed by vortexing and inspected for solid residues. For the cases for which no solid residues were observed the solutions were arbitrarily supplemented with additional solid Compound 1. This process was repeated (hourly observation) until a solid residue remained readily observable. The samples were rotated at room temperature for 24 h.
The equilibrium solubility samples were cleared by centrifugation (table top centrifuge, rcf=16,100×g, 10 min). The supernatant was subjected to HPLC analysis and assayed in triplicates for Compound 1 concentration using the HPLC method described in Example 2. The pH of the supernatant was measured (Table 3).

[2] = Compatibility with sterilization filters
Method: The feasibility of aseptic processing was evaluated and three different filter materials were tested for compatibility with the reconstituted Compound 1 formulation.
Filter compatibility of the reconstituted Compound 1 drug product was tested with different filter material (Table 17) composed of polyethersulfone (PES), nylon, and polyvinylidene fluoride (PVDF). For this a volume of Vfilter pass=10 mL was passed through the respective filter and the first as well as the last 10 vol % of the filtered volume were assayed for recovery of Compound 1 (Table 12).
The average values of % recovery are relative to the reconstituted drug product that has not been in contact with the tested materials.

[3] = Compatibility with infusion bags
Method: (§1) The compatibility of the reconstituted Compound 1 formulation with two infusion bags (different volumes and material) and two IV lines was tested (Table 13) at c(Compound 1)=0.1 mg/mL. After injection of the reconstituted drug product solution into infusion bags filled with NS, the recovery of Compound 1 was measured i) directly after mixing with the infusion vehicle (to, Table 14) and ii) after Δt=[…] of contact time with the infusion bag (Table 15). Additionally, storage in an infusion bag at ambient temperature and lighting conditions was assessed for Δt=6 h (Table 15). The average values of % recovery are relative to the reconstituted drug product that has not been in contact with the tested materials.

[4] = Compatibility with IV systems
Method: as §1
The two IV systems were evaluated for compatibility with the reconstituted drug product solution by filling the IV lines with the diluted (NS) drug product solution and flowing Vflow through (FT)=101 mL through the respective IV system at a flow rate of 5 mL/min. Flow-through samples of Vsample=1 mL were collected i) immediately (VFT=0 mL), ii) after VFT=10 mL and iii) after VFT=[…]. Flow through samples were assayed for recovery of Compound 1 and compared to the infusion solution in the reservoir at t0 (Table 16).

[5] = Liquid injectable formulation: compounding, dilution into infusion vehicles, stability
Method: Compounding process for liquid formulations of Compound 1, designed for dilution into infusion vehicles was developed with 3.0 mg/mL of Compound 1 (or 3.13 mg/mL Compound 1 free base equivalent), phosphate buffer solution (PBS), and pH of 6.4-7.2. The compounding process was applied over a wide range of scales (25-500 mL).
The compounding of the drug product required a neutralization step using 0.5N sodium hydroxide solution and buffering with PBS to adjust the pH to values compatible with an IV infusion. The compounding process also required a filtration step, which also served as aseptic processing.
The compounded formulations were diluted into infusion vehicles: normal saline, 5% dextrose in water (D5W), and lactated Ringer's solution (buffered and unbuffered). The dilution into normal saline was carried out at 100-fold and 600-fold dilution.

[6] = Compatibility with infusion bags; settings: infus. bag1, t0 (Table 15)

C[C@@H](NC(=O)N1C(=O)[C@H](Cc2ccnc(N)c2)[C@H]1C(=O)O)C1CCCCC1 [Compound 1, (2S,3R)-3-[(2-aminopyridin-4-yl)methyl]-1-{[(1R)-1-cyclohexylethyl]carbamoyl}-4-oxoazetidine-2-carboxylic acid]
solubility thermodynamic at 24 h ([1]; citrate buffer, pH 2.72, aqueous buffer, citric acid/sodium 200 mM, pH (Buffer) 3.00, pH (Meas.) 2.72, room temperature 24 h): 5960 µg/mL (≈ 15.9 mM)
solubility thermodynamic at 24 h ([1]; citrate buffer, pH 3.74, aqueous buffer, citric acid/sodium 200 mM, pH (Buffer) 4.00, pH (Meas.) 3.74, room temperature 24 h): 6200 µg/mL (≈ 16.6 mM)
solubility thermodynamic at 24 h ([1]; pH 1.29, aqueous buffer, phosphoric acid/sodium phosphate 200 mM, pH (Buffer) 2.00, pH (Meas.) 1.29, room temperature 24 h): 159000 µg/mL (≈ 424 mM)
solubility thermodynamic at 24 h ([1]; pH 4.57, aqueous buffer, acetic acid/sodium acetate 200 mM, pH (Buffer) 5.00, pH (Meas.) 4.57, room temperature 24 h): 7480 µg/mL (≈ 20 mM)
solubility thermodynamic at 24 h ([1]; pH 6.33, aqueous buffer, sodium phosphate 200 mM, pH (Buffer) 7.00, pH (Meas.) 6.33, room temperature 24 h): 12000 µg/mL (≈ 32 mM)
solubility thermodynamic at 24 h ([1]; pH 6.67, aqueous buffer, sodium phosphate 200 mM, pH (Buffer) 8.00, pH (Meas.) 6.67, room temperature 24 h): 15300 µg/mL (≈ 40.9 mM)
Avg. c(Compound 1, FB, Obs.) ([2]; Nylon filter, first 10% of 10 mL): 0.94 mg/mL
Avg. c(Compound 1, FB, Obs.) ([2]; Nylon filter, last 10% of 10 mL): 0.95 mg/mL
Avg. c(Compound 1, FB, Obs.) ([2]; PES filter, first 10% of 10 mL): 0.94 mg/mL
Avg. c(Compound 1, FB, Obs.) ([2]; PES filter, last 10% of 10 mL): 0.95 mg/mL
Avg. c(Compound 1, FB, Obs.) ([2]; PVDF filter, first 10% of 10 mL): 0.95 mg/mL
Avg. c(Compound 1, FB, Obs.) ([2]; PVDF filter, last 10% of 10 mL): 0.95 mg/mL
Avg. c(Compound 1, FB, Obs.) ([2]; Sample Soln. (pre-filtration)): 0.95 mg/mL
back-pressure during filtration ([2]; any of the tested filters): No increase
Avg. c(Compound 1, FB, Obs.) ([3]; Sample soln. (water), no contact with bags): 0.09 mg/mL
Avg. c(Compound 1, FB, Obs.) ([3]; infus. bag1 (500 mL Viaflo, NS), t0, vs sample soln.): 0.09 mg/mL
Avg. c(Compound 1, FB, Obs.) ([3]; infus. bag1, t = 10 min): 0.09 mg/mL
Avg. c(Compound 1, FB, Obs.) ([3]; infus. bag1, t = 6 h, ambient): 0.09 mg/mL
Avg. c(Compound 1, FB, Obs.) ([3]; infus. bag2 (50 mL Viaflex, NS), t0, vs sample soln.): 0.08 mg/mL
Avg. c(Compound 1, FB, Obs.) ([3]; infus. bag2, t = 10 min): 0.08 mg/mL
Avg. c(Compound 1, FB, Obs.) ([3]; infus. bag2, t = 6 h, ambient): 0.08 mg/mL
adsorption of Compound 1 to infusion bag material ([3]; infusion bag #1 (Viaflo) compared with infusion bag #2 (Viaflex), immediately after contact): lesser extent of Compound 1 adsorption
Avg. c(Compound 1, FB, Obs.) ([4]; IV#1, VFT = 0 mL, 5 mL/min): 0.09 mg/mL
Avg. c(Compound 1, FB, Obs.) ([4]; IV#1, VFT = 10 mL, 5 mL/min): 0.09 mg/mL
Avg. c(Compound 1, FB, Obs.) ([4]; IV#1, VFT = 100 mL, 5 mL/min): 0.09 mg/mL
Avg. c(Compound 1, FB, Obs.) ([4]; IV#2, VFT = 0 mL, 5 mL/min): 0.09 mg/mL
Avg. c(Compound 1, FB, Obs.) ([4]; IV#2, VFT = 10 mL, 5 mL/min): 0.09 mg/mL
Avg. c(Compound 1, FB, Obs.) ([4]; IV#2, VFT = 100 mL, 5 mL/min): 0.09 mg/mL
Avg. c(Compound 1, FB, Obs.) ([4]; infus. bag, t0 (IV#1), reservoir): 0.09 mg/mL
Avg. c(Compound 1, FB, Obs.) ([4]; infus. bag, t0 (IV#2), reservoir): 0.09 mg/mL
pH over time ([5]; diluted into normal saline, 0.03 mg/mL, ambient, 48 hours): constant
purity over time ([5]; diluted into normal saline, 0.03 mg/mL, ambient, over 48 hours): unchanged
time stable at ambient temperature ([5]; formulation diluted into normal saline, 0.03 mg/mL): at least 48 hours
loss of Compound 1 in filtration step of compounding ([5]; liquid formulation 3.0 mg/mL, PBS, pH 6.4-7.2): minimal loss or no loss
nominal degradation ([5]; liquid formulations, 2-8° C., at least one week): < 4%
Avg. c(Compound 1, FB, Obs.) [6]: 0.09 mg/mL
